Source: ChEMBL document CHEMBL1134206 (Bioorg Med Chem Lett, 2001)

Key:
[1] = biological target: D(2) dopamine receptor (Rattus norvegicus, UniProt P61169); experiment: Binding affinity to Dopamine receptor D2 in of rat striatum membrane with [3H]- raclopride as radioligand; type: cell membranes
[2] = biological target: T1, 5-hydroxytryptamine receptor 1A (Rattus norvegicus) (UniProt P19327); experiment: Ratio of binding affinity to 5-HT 1A and D2 receptor
T1 sequence (whole entry): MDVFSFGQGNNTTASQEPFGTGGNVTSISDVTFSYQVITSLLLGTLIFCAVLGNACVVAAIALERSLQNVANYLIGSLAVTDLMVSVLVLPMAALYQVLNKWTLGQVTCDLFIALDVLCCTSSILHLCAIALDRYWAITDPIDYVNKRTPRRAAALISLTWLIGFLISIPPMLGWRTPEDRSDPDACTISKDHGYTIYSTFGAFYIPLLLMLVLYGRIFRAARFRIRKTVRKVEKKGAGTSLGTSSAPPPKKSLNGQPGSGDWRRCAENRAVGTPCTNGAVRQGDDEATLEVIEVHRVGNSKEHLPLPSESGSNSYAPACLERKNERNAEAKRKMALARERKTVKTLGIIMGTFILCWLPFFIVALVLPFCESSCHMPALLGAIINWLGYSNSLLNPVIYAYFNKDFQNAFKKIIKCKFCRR

[3] = biological target: T2, 5-hydroxytryptamine receptor 1A (Rattus norvegicus, UniProt P19327); experiment: Binding affinity to 5-hydroxytryptamine 1A receptor of rat hippocampus with [3H]8-OH-DPAT as radioligand; type: tissue-based
T2 sequence (P19327 whole entry): T1 sequence (whole entry)

[4] = organism: Rattus norvegicus; experiment: Neuronal protective effect of compound against ischemic brain damage in rat t-MCAO model; type: functional

Sequence of D(2) dopamine receptor (P61169 whole entry): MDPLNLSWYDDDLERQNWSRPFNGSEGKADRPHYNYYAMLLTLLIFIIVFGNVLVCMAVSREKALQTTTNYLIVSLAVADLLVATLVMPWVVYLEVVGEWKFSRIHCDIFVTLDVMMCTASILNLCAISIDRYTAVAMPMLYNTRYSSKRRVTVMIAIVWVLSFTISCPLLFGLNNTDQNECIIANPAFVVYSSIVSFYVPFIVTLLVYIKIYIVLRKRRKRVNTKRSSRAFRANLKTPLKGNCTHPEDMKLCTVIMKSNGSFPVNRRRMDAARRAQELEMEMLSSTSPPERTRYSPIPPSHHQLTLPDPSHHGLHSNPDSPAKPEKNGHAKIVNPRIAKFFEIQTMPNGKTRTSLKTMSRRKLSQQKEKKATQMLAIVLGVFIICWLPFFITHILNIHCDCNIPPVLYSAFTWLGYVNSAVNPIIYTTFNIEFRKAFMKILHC

SMILES	IC50 [1] [nM]	Ratio [2]	IC50 [3] [nM]	Inhibition [4] [%]
O=C1c2ccccc2OC=C(Cl)N1CCCCN1CCN(c2ncccn2)CC1	199	125	1.59	
CC1=COc2ccccc2C(=O)N1CCCCN1CCN(c2ncccn2)CC1	1100	108	10.2	
O=C1c2ccccc2OC=C(Cl)N1CCCCN1CCN(c2ccccn2)CC1		66		
Cc1c(N(C)C)c(=O)n(-c2ccccc2)n1C [AMINOPYRINE]				21
O=C1c2ccccc2OC=C(Cl)N1CCCCN1CC=C(c2ccccn2)CC1 [PICLOZOTAN]	84	179		63
O=C1c2ccccc2OC=CN1CCCCN1CCN(c2ncccn2)CC1			18	
